PubChem BioAssay (NCI)
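Cultured in 96-well plates, cells were exposed to test compound for 48 hours across five concentrations. TGI: total growth inhibition.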

Tests used:
Test in all cases: NCI tumour cell line growth inhibition, 48 h
[1] = system: 786-0 renal
[2] = system: A549 NSCLC
[3] = system: ACHN renal
[4] = system: BT-549 breast
[5] = system: CAKI-1 renal
[6] = system: CCRF-CEM leukemia
[7] = system: COLO 205 colon
[8] = system: DU-145 prostate
[9] = system: EKVX NSCLC
[10] = system: HCC-2998 colon
[11] = system: HCT-116 colon
[12] = system: HCT-15 colon
[13] = system: HOP-62 NSCLC
[14] = system: HS 578T breast
[15] = system: HT29 colon
[16] = system: IGROV1 ovarian
[17] = system: K-562 leukemia
[18] = system: KM12 colon
[19] = system: LOX IMVI melanoma
[20] = system: M14 melanoma
[21] = system: MALME-3M melanoma
[22] = system: MCF7 breast
[23] = system: MDA-MB-435
[24] = system: MDA-N
[25] = system: MOLT-4 leukemia
[26] = system: NCI-H226 lung
[27] = system: NCI-H23 lung
[28] = system: NCI-H460 lung
[29] = system: NCI-H522 lung
[30] = system: NCI/ADR-RES ovarian
[31] = system: OVCAR-3 ovarian
[32] = system: OVCAR-4 ovarian
[33] = system: OVCAR-5 ovarian
[34] = system: OVCAR-8 ovarian
[35] = system: PC-3 prostate
[36] = system: RXF 393 renal
[37] = system: SF-268 CNS
[38] = system: SF-295 CNS
[39] = system: SF-539 CNS
[40] = system: SK-MEL-2 melanoma
[41] = system: SK-MEL-28 melanoma
[42] = system: SK-MEL-5 melanoma
[43] = system: SK-OV-3 ovarian
[44] = system: SN12C renal
[45] = system: SNB-19 CNS
[46] = system: SNB-75 CNS
[47] = system: SR leukemia
[48] = system: SW-620 colon
[49] = system: T-47D breast
[50] = system: TK-10 renal
[51] = system: U251 CNS
[52] = system: UACC-257 melanoma
[53] = system: UACC-62 melanoma
[54] = system: UO-31 renal
[55] = system: A498 renal
[56] = system: HL-60(TB) leukemia
[57] = system: HOP-92 NSCLC
[58] = system: RPMI-8226 leukemia
[59] = system: MDA-MB-231 breast

CC1=C(C(=O)OCCc2ccc([N+](=O)[O-])cc2)C(c2cccc([N+](=O)[O-])c2)C(C(=O)OC(C)C)=C(C)N1 (stereo not drawn)
TGI [1]: > 100 µM
TGI [2]: > 100 µM
TGI [3]: > 100 µM
TGI [4]: > 100 µM
TGI [5]: > 100 µM
TGI [6]: > 100 µM
TGI [7]: > 100 µM
TGI [8]: > 100 µM
TGI [9]: > 100 µM
TGI [10]: > 100 µM
TGI [11]: > 100 µM
TGI [12]: > 100 µM
TGI [13]: > 100 µM
TGI [14]: > 100 µM
TGI [15]: > 100 µM
TGI [16]: > 100 µM
TGI [17]: > 100 µM
TGI [18]: > 100 µM
TGI [19]: > 100 µM
TGI [20]: > 100 µM
TGI [21]: > 100 µM
TGI [22]: > 100 µM
TGI [23]: > 100 µM
TGI [24]: > 100 µM
TGI [25]: > 100 µM
TGI [26]: > 100 µM
TGI [27]: > 100 µM
TGI [28]: > 100 µM
TGI [29]: 7.71 µM
TGI [30]: > 100 µM
TGI [31]: > 100 µM
TGI [32]: > 100 µM
TGI [33]: > 100 µM
TGI [34]: > 100 µM
TGI [35]: > 100 µM
TGI [36]: > 100 µM
TGI [37]: > 100 µM
TGI [38]: > 100 µM
TGI [39]: > 100 µM
TGI [40]: > 100 µM
TGI [41]: > 100 µM
TGI [42]: 7.25 µM
TGI [43]: > 100 µM
TGI [44]: > 100 µM
TGI [45]: > 100 µM
TGI [46]: 76.7 µM
TGI [47]: > 100 µM
TGI [48]: > 100 µM
TGI [49]: > 100 µM
TGI [50]: > 100 µM
TGI [51]: > 100 µM
TGI [52]: > 100 µM
TGI [53]: > 100 µM
TGI [54]: > 100 µM

COc1cc(S(=O)(=O)Nc2ccc(-c3csc(N4C(=O)C(C)SC4c4cccc(Oc5ccccc5)c4)n3)cc2)ccc1Cl (stereo not drawn)
TGI [55]: 79.3 µM
TGI [2]: > 100 µM
TGI [3]: > 100 µM
TGI [4]: > 100 µM
TGI [5]: > 100 µM
TGI [6]: > 100 µM
TGI [7]: > 100 µM
TGI [8]: > 100 µM
TGI [9]: > 100 µM
TGI [11]: > 100 µM
TGI [12]: > 100 µM
TGI [56]: 67.2 µM
TGI [13]: > 100 µM
TGI [57]: > 100 µM
TGI [14]: > 100 µM
TGI [15]: > 100 µM
TGI [16]: > 100 µM
TGI [17]: > 100 µM
TGI [18]: > 100 µM
TGI [19]: > 100 µM
TGI [20]: > 100 µM
TGI [21]: > 100 µM
TGI [22]: 72.2 µM
TGI [23]: > 100 µM
TGI [24]: > 100 µM
TGI [25]: > 100 µM
TGI [26]: > 100 µM
TGI [27]: > 100 µM
TGI [29]: > 100 µM
TGI [30]: > 100 µM
TGI [31]: > 100 µM
TGI [33]: > 100 µM
TGI [34]: > 100 µM
TGI [35]: > 100 µM
TGI [58]: > 100 µM
TGI [36]: 88.2 µM
TGI [37]: > 100 µM
TGI [38]: > 100 µM
TGI [39]: > 100 µM
TGI [40]: > 100 µM
TGI [41]: > 100 µM
TGI [42]: > 100 µM
TGI [43]: > 100 µM
TGI [44]: > 100 µM
TGI [45]: > 100 µM
TGI [46]: > 100 µM
TGI [47]: > 100 µM
TGI [48]: > 100 µM
TGI [49]: > 100 µM
TGI [53]: > 100 µM
TGI [54]: > 100 µM

O=C1CC(Cl)c2c1csc2Br (stereo not drawn)
TGI [1]: 25.9 µM
TGI [55]: 53.8 µM
TGI [2]: 41.4 µM
TGI [3]: 29 µM
TGI [4]: 34 µM
TGI [5]: 17.7 µM
TGI [6]: 7.78 µM
TGI [7]: 28.5 µM
TGI [8]: > 100 µM
TGI [9]: 43.2 µM
TGI [10]: 31.2 µM
TGI [11]: 33.1 µM
TGI [12]: 25.8 µM
TGI [56]: 52.4 µM
TGI [13]: 28.7 µM
TGI [57]: 41.8 µM
TGI [14]: 47.5 µM
TGI [15]: 43.9 µM
TGI [16]: 30.8 µM
TGI [17]: 47 µM
TGI [18]: 28.5 µM
TGI [19]: 30.5 µM
TGI [20]: 27.3 µM
TGI [21]: 30.1 µM
TGI [22]: 19.6 µM
TGI [23]: 29.1 µM
TGI [24]: 42.2 µM
TGI [25]: 22.2 µM
TGI [26]: 76.9 µM
TGI [27]: 28.9 µM
TGI [28]: 42.5 µM
TGI [29]: 11.3 µM
TGI [30]: 47 µM
TGI [31]: 39.5 µM
TGI [32]: 63.6 µM
TGI [33]: 33.5 µM
TGI [34]: 29.8 µM
TGI [35]: 25.4 µM
TGI [58]: 3.25 µM
TGI [36]: 34.7 µM
TGI [37]: 31.4 µM
TGI [38]: 50.2 µM
TGI [39]: 6.46 µM
TGI [40]: 29.8 µM
TGI [41]: 32.1 µM
TGI [42]: 30.6 µM
TGI [43]: 32.6 µM
TGI [44]: 35.7 µM
TGI [45]: 32.9 µM
TGI [46]: 35.4 µM
TGI [47]: 22.3 µM
TGI [48]: 12.6 µM
TGI [49]: 70.1 µM
TGI [50]: 29.5 µM
TGI [51]: 30.4 µM
TGI [52]: 32.1 µM
TGI [53]: 29.5 µM
TGI [54]: 23.8 µM

CC(CCc1ccccc1)NCC(O)n1c(/N=N/N(C)C)nc2c1c(=O)n(C)c(=O)n2C (stereo not drawn)
TGI [1]: > 100 µM
TGI [55]: > 100 µM
TGI [2]: > 100 µM
TGI [3]: > 100 µM
TGI [4]: > 100 µM
TGI [5]: > 100 µM
TGI [6]: > 100 µM
TGI [7]: > 100 µM
TGI [9]: > 100 µM
TGI [11]: > 100 µM
TGI [12]: > 100 µM
TGI [56]: > 100 µM
TGI [13]: > 100 µM
TGI [57]: > 100 µM
TGI [14]: > 100 µM
TGI [15]: > 100 µM
TGI [16]: > 100 µM
TGI [17]: > 100 µM
TGI [18]: > 100 µM
TGI [19]: > 100 µM
TGI [20]: > 100 µM
TGI [21]: > 100 µM
TGI [22]: > 100 µM
TGI [59]: > 100 µM
TGI [23]: > 100 µM
TGI [24]: > 100 µM
TGI [25]: > 100 µM
TGI [26]: > 100 µM
TGI [27]: > 100 µM
TGI [28]: > 100 µM
TGI [29]: > 100 µM
TGI [30]: > 100 µM
TGI [31]: > 100 µM
TGI [32]: > 100 µM
TGI [33]: > 100 µM
TGI [34]: > 100 µM
TGI [35]: > 100 µM
TGI [58]: > 100 µM
TGI [36]: > 100 µM
TGI [37]: > 100 µM
TGI [38]: > 100 µM
TGI [39]: > 100 µM
TGI [40]: > 100 µM
TGI [41]: > 100 µM
TGI [42]: > 100 µM
TGI [43]: > 100 µM
TGI [45]: > 100 µM
TGI [46]: > 100 µM
TGI [47]: > 100 µM
TGI [48]: > 100 µM
TGI [49]: > 100 µM
TGI [50]: > 100 µM
TGI [51]: > 100 µM
TGI [52]: > 100 µM
TGI [53]: > 100 µM
TGI [54]: > 100 µM

Cc1cccc(C)c1NC(=O)/C=C/c1ccccc1
TGI [1]: > 100 µM
TGI [55]: > 100 µM
TGI [2]: > 100 µM
TGI [3]: > 100 µM
TGI [4]: > 100 µM
TGI [5]: > 100 µM
TGI [6]: > 100 µM
TGI [7]: > 100 µM
TGI [8]: > 100 µM
TGI [9]: > 100 µM
TGI [10]: > 100 µM
TGI [11]: > 100 µM
TGI [12]: > 100 µM
TGI [56]: > 100 µM
TGI [13]: > 100 µM
TGI [14]: > 100 µM
TGI [15]: > 100 µM
TGI [17]: > 100 µM
TGI [18]: > 100 µM
TGI [19]: > 100 µM
TGI [20]: > 100 µM
TGI [21]: > 100 µM
TGI [22]: > 100 µM
TGI [59]: > 100 µM
TGI [23]: > 100 µM
TGI [24]: > 100 µM
TGI [25]: > 100 µM
TGI [26]: > 100 µM
TGI [27]: > 100 µM
TGI [28]: > 100 µM
TGI [29]: > 100 µM
TGI [31]: > 100 µM
TGI [32]: > 100 µM
TGI [33]: > 100 µM
TGI [34]: > 100 µM
TGI [35]: > 100 µM
TGI [58]: > 100 µM
TGI [37]: > 100 µM
TGI [38]: > 100 µM
TGI [39]: > 100 µM
TGI [40]: > 100 µM
TGI [41]: > 100 µM
TGI [42]: > 100 µM
TGI [43]: > 100 µM
TGI [44]: > 100 µM
TGI [45]: > 100 µM
TGI [46]: > 100 µM
TGI [47]: > 100 µM
TGI [48]: > 100 µM
TGI [49]: > 100 µM
TGI [50]: > 100 µM
TGI [51]: > 100 µM
TGI [52]: > 100 µM
TGI [53]: > 100 µM
